Earlier results on one substance are cited in US20080051430A1, “Acylated Piperidine Derivatives as Melanocortin 4-Receptor Agonists” (priority 2004, published 2008).

Data set [1] relates to men with a variety of organic risk factors. To be noted: subcutaneous injection; compared with placebo.
The conditions of data set [2]: in vivo, po.
Data set [3] has as its system males with psychogenic erectile dysfunction.

For “Ac-Nle-c[Asp-His-DPhe-Arg-Trp-Lys]-NH2 [MT-II]”, the “level of sexual desire” value in data set [1] is recorded as “significantly higher”. Also, the “absorption into the systemic circulation” value in data set [2] is reported as “not absorbed into the systemic circulation”. Further, in data set [3] (in vivo), the duration of action result is given as “approximately 2.5 hours” and the “time to onset of erection” value was 10 to 20 min. The response rate in data set [3] (injected intramuscularly or subcutaneously) is 75%.
